Series [1] concerns TRAMP mouse prostate tumors. The series is described as follows: Detection of spontaneous prostate tumors in TRAMP transgenic mice. The class given is in vivo. The protocol: (§1) The uptake of cyanine dyes by the TRAMP mouse prostate model and the Apc^Min/+ mouse-adenoma model (obtained from The Jackson Laboratory, Bar Harbor, Me.) was assessed by a similar protocol as described above. We also utilized the Olympus OV100 imaging system to detect adenoma in the Apc^Min/+ mouse model. In brief, mice were injected intraperitoneally with IR-783 dye at a dose of 10 nmol/20 g body weight and animals were subjected to total body cyanine dye imaging as described above. Animals were sacrificed at 48 hrs after dye administration and tumors were dissected and subjected to NIR imaging. The presence of tumor cells in tissue specimens was confirmed by histopathologic analysis.

Series [2] in a line: Physicochemical properties of the dye.
Series [3] has as its system human renal cancer cells (SN12C). The series is described as follows: Detection of renal cancer cells in blood by NIR imaging and flow cytometry. The series is classed as cell-based. The note with it: SN12C cells spiked into whole blood; 20 μM IR-783. The protocol:
Citrated whole mouse blood samples were collected from same inbred athymic nude mice. A known number of human renal cancer cells (SN12C) were added into 3 ml whole mouse blood, and mixed gently with 20 μM IR-783 and incubated for 30 minutes at 37° C. The mononuclear cells and cancer cells were recovered by gradient centrifugation using Histopaque-1077 (Sigma, St. Louis, Mo.) and then diluted with 0.5 ml of 1% paraformaldehyde to inhibit further activation. A sample incubated with PBS served as negative isotype control. The isolated live cells were observed under a Leica TCS SP confocal microscope (Leica Microsystems, Heidelberg, Germany) and samples were excited with 670 nm. All samples were analyzed within 1 hrs of collection in a Becton Dickinson LSRII flow cytometer (Becton Dickinson Biosciences, San Jose, Calif.) with a red laser diode (640 nm) for excitation and cy7 detector for detection and with LYSIS II software.

Series [4] concerns Apc^Min/+ mouse adenoma. The series is described as follows: Detection of intestinal neoplasia in Apc^Min/+ mice. The class given is in vivo. The note with it: IR-783 i.p. 10 nmol/20 g. The protocol:
as §1

The subject of series [5] is human bladder tumors. The series is described as follows: Uptake in freshly harvested human bladder tumor specimens. The series is classed as cell-based. The source says:
The inventors determined the ability of IR-783 as an imaging agent for freshly harvested human renal and bladder cancer specimens. […] Fresh tumor xenografts grown in mice (FIG. 35) are able to uptake the dye. […] The nature of this uptake at this time is not clear.

In series [6] the test system is ARCaPM tumor. The series is described as follows: Dye biodistribution in ARCaPM tumor-bearing mice. The series is classed as in vivo, mouse. The source says: To assess tissue distribution of these dyes, athymic mice without tumor implantation were sacrificed at 0, 6 and 80 hrs (N=3 each) after i.v. injection of IR-783 dye at a dose of 10 nmol/20 g. Dissected organs were subjected to NIR imaging by a Kodak Imaging Station 4000 MM. In another study the mice bearing orthotopic ARCaPM tumors were subjected to NIR imaging at 0.5, 24, 48, 72 and 96 hrs after IR-783 i.v. administration at a dose of 10 nmol/20 g. In some cases, we also assessed the biodistribution of NIR dye by a spectral method in tissues harvested from athymic mice bearing subcutaneous ARCaPM tumors (N=6). Tumors and normal host organs were homogenized in PBS, centrifuged at 15,000×g for 15 minutes to recover the supernatant fraction after the mice were injected i.p. with IR-783 at a dose of 10 nmol/20 g. The presence of the organic dyes (parental IR-783 and its metabolites) in tissues was estimated spectrophotometrically at an emission wavelength of 820 nm by a PTI Near Infrared Fluorometer QuantaMaster™ 50 (PTI, Birmingham, N.J.) equipped with a 75-watt xenon arc lamp under 500 to 1700 nm InGaAs detector using known concentrations of IR-783 as the standard (28). In other cases, tumor tissues harvested from mice were stored in formalin from 1 week to 3 months, and fluorescence images were obtained and compared.

Series [7] is described as follows: Systemic toxicity of IR-783 in C57BL/6 mice. The series is classed as in vivo, mouse. The note with it: normal C57BL/6 mice. The protocol:
The systemic toxicity of IR-783 was investigated in C57BL/6 mice (National Cancer Institute, Frederick, Md.) by injecting the dye by an i.p. route. The mice (N=8 per group) were subdivided into 4 groups and received PBS as control and IR-783 i.p. injection daily at the following doses: 0.375 mg/kg (imaging dose), 3.75 mg/kg and 37.5 mg/kg. […] The histomorphologic appearance of their vital organs was assessed at the time of sacrifice.

The subject of series [8] is human renal tumor tissues. The series is described as follows: In vitro fluorescence imaging of freshly harvested human renal tumor tissues. The note with it: fresh nephrectomy specimens; 20 µM dye, 37° C., 30 minutes. The class given is cell-based. The protocol:
Kidney tumor tissue samples were collected from 5 patients immediately after tumor nephrectomy according to an Emory approved IRB protocol. All 5 patients had histologically confirmed renal cell carcinoma of the clear cell type. The tissues were excised from tumor area, normal area and the area of tumor and normal adjacent on the kidney removed. All above procedures were conducted on ice and the excised tissues were stored at 4° C. Each incised tissue was cut into three pieces and were incubated with 20 µM IR-783 dye, 20 µM IR-780 and PBS, respectively, at 37° C. for 30 minutes. The dye solutions were removed and the tissues were washed five times by PBS. Optical imaging was done using Kodak Imaging Station Imaging System (see above).
To determine dye uptake in tissues, tissues cut from incised kidney samples (described above) tumor were placed in OTC medium and frozen at −80° C. These frozen tissues were retrieved for histopathologic sections cut to 5 Lm thickness for pathologic observation under a confocal microscope as described above.

Series [9] deals with ARCaPM cells. The series is described as follows: Detection of prostate cancer cells in human blood. The class given is cell-based. The protocol:
An experimental model of evaluating human prostate cancer cells in blood was developed. In brief, heparinized whole blood from human volunteers was collected according to an Emory University approved IRB protocol. A known number of human prostate cancer cells (10-1,000) were added to 1 ml of whole blood, mixed gently with 20 μM IR-783 and incubated for 30 minutes at 37° C. The mononuclear cells and cancer cells were recovered by gradient centrifugation using Histopaque-1077 (Sigma, St. Louis, Mo.). The isolated live cells were observed under a confocal fluorescence microscope.

“Also recorded” adds a separate entry of the source.

As for “2-[2-[2-Chloro-3-[2-[1,3-dihydro-3,3-dimethyl-1-(4-sulfobutyl)-2H-indol-2-ylidene]-ethylidene]-1-cyclohexen-1-yl]-ethenyl]-3,3-dimethyl-1-(4-sulfobutyl)-3H-indolium [IR-783]”, the “detection of / dye uptake by TRAMP prostate tumors” value in series [1] (TRAMP mice, IR-783 i.p. 10 nmol/20 g) was “accumulate in prostate tumors and their metastases; also recorded: could detect tumor; also recorded: active uptake; also recorded: only tumor-positive signal”. In addition, the “NIR fluorescence of tumor specimen after formalin fixation” value in series [1] (TRAMP tumor, formalin solution for 3 weeks) is “retain heptamethine cyanine NIR fluorescence; also recorded: strong NIR signal”. Also, in series [2], the photostability entry is reported as “relatively photostable” and the water solubility entry was “water-soluble”. For the same substance, in [3], the “flow cytometry discrimination of stained cancer cells” value is on record as “totally identified from normal lymphocytes” and the “visualization of cancer cells in blood under NIR imaging” value is recorded as “clearly visualized”. Further, the “detection of tumor (adenoma)” value in series [4] is given as “could detect tumor”. In addition, in series [5] (freshly harvested bladder specimens), the “dye uptake in normal tissue” value was “to a much lesser extent by normal tissue”. In addition, in [5] (freshly harvested specimens), the “dye uptake by fat cells and tissues” value was “can also be taken up by fatty tissues; also recorded: also taken up by fat cells and tissues”; the “dye uptake in human bladder tumor tissue” value is listed as “can be taken up; also recorded: taken up by tumor tissues”. The “dye signal in tumor tissue” value in series [6] (24 hrs after dye, ARCaPM tumor, in vivo and ex vivo imaging) is “accumulate in tumor tissues; also recorded: strong signals”. Also, the “signal to noise ratios in tumor specimens” value in series [6] (in vivo whole body and ex vivo analysis) is “exceeding 25”. The “apparent concentration of dye and its metabolites in tumors versus normal tissues” value in series [6] (light emission intensity at 820 nm, P<0.05, 3 determinations) is on record as around 10 fold. Further, in series [6] (liver, lung, heart, spleen and kidneys), the “signals in normal organs” value is listed as “very low signals”. For the same substance, in series [6] (orthotopic ARCaPM tumor, i.v. 10 nmol/20 g), the “time at which tumors still retained dye” value is at least 4 days. Moreover, in series [7], the “effect on body weights” value is “did not affect body weights” and the “histopathology of vital organs at the time of sacrifice” value was “No abnormal histopathology”. The systemic toxicity result in series [7] (i.p. daily 0.375, 3.75 and 37.5 mg/kg, one month) is recorded as “no systemic toxicity”. Moreover, in series [8], the “dye uptake in human renal tumor tissue” value was “can be taken up; also recorded: significant uptake; also recorded: strong IR-783 uptake”; the “dye uptake in normal kidney tissue” value is on record as “substantial low uptake; also recorded: undetectable; also recorded: not in normal kidney tissues”; the “signal in tumor tissues compared with IR-780 and PBS” value was “stronger signals in tumor tissues than the IR-780 and PBS group”. For the same substance, in series [9] (ARCaPM cells (10 to 1,000) added to 1 ml whole blood), the “fewest cancer cells detected in whole blood” value is listed as 10 cancer cells per milliliter. In [9] (ARCaPM cells, 20 μM IR-783, 30 minutes, 37° C.), the “visualization / dye uptake of cancer cells mixed with human blood” value was “clearly visualized; also recorded: Significant uptake and retention”. In addition, the “signal in mononuclear cells” value in series [9] (human blood, 20 μM IR-783) is “hardly showed any signals”.

Values taken from patent US20170314056A1, “METHOD OF USING NEAR INFRARED FLUORESCENT DYES FOR IMAGING AND TARGETING CANCERS” (priority 2010, published 2017).
